The supplement of paper PMC10307832

Columns and labels:
Assay in all cases: relative viability (nuclei count vs DMSO), 5 days (fraction); higher = more cells survive
Idelalisib + Pictilisib = compound: CC[C@H](Nc1ncnc2[nH]cnc12)c1nc2cccc(F)c2c(=O)n1-c1ccccc1 [Idelalisib] + CS(=O)(=O)N1CCN(Cc2cc3nc(-c4cccc5[nH]ncc45)nc(N4CCOCC4)c3s2)CC1 [Pictilisib] (partner 1 µM)
Procedure, shortened: (§1)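 Dosing by pin tool came one day after lung cancer cell lines were seeded in 1536-well plates, using either one drug or a fixed anchor-drug dose plus five library-drug doses (not always all listed) in √10 steps. After 5 days, nuclei were counted on 4× images. Relative viability is treated-well nuclei count divided by vehicle-well nuclei count, and values are medians of duplicate plates.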

Idelalisib + Palbociclib = compound: CC[C@H](Nc1ncnc2[nH]cnc12)c1nc2cccc(F)c2c(=O)n1-c1ccccc1 [Idelalisib] + CC(=O)c1c(C)c2cnc(Nc3ccc(N4CCNCC4)cn3)nc2n(C2CCCC2)c1=O [Palbociclib] (partner 0.5 µM)
Procedure, shortened: as §1

Idelalisib + Phenformin = compound: CC[C@H](Nc1ncnc2[nH]cnc12)c1nc2cccc(F)c2c(=O)n1-c1ccccc1 [Idelalisib] + N=C(N)NC(=N)NCCc1ccccc1 [Phenformin] (partner 250 µM)
Procedure, shortened: as §1

Pemetrexed + Linsitinib = compound: Nc1nc2[nH]cc(CCc3ccc(C(=O)N[C@@H](CCC(=O)O)C(=O)O)cc3)c2c(=O)[nH]1 [Pemetrexed] + C[C@]1(O)C[C@@H](c2nc(-c3ccc4ccc(-c5ccccc5)nc4c3)c3c(N)nccn32)C1 [Linsitinib] (partner 1 µM)
Procedure, shortened: as §1

Cell Line	relative viability (Idelalisib + Pictilisib; first compound 0.04 µM)	relative viability (Idelalisib + Pictilisib; first compound 0.1265 µM)	relative viability (Idelalisib + Pictilisib; first compound 0.4 µM)	relative viability (Idelalisib + Pictilisib; first compound 1.265 µM)	relative viability (Idelalisib + Pictilisib; first compound 4 µM)	relative viability (Idelalisib + Palbociclib; first compound 0.04 µM)	relative viability (Idelalisib + Palbociclib; first compound 0.1265 µM)	relative viability (Idelalisib + Palbociclib; first compound 0.4 µM)	relative viability (Idelalisib + Palbociclib; first compound 1.265 µM)	relative viability (Idelalisib + Palbociclib; first compound 4 µM)	relative viability (Idelalisib + Phenformin; first compound 0.04 µM)	relative viability (Idelalisib + Phenformin; first compound 0.1265 µM)	relative viability (Idelalisib + Phenformin; first compound 0.4 µM)	relative viability (Idelalisib + Phenformin; first compound 1.265 µM)	relative viability (Idelalisib + Phenformin; first compound 4 µM)	relative viability (Pemetrexed + Linsitinib; first compound 0.002 µM)	relative viability (Pemetrexed + Linsitinib; first compound 0.006325 µM)	relative viability (Pemetrexed + Linsitinib; first compound 0.02 µM)	relative viability (Pemetrexed + Linsitinib; first compound 0.06325 µM)	relative viability (Pemetrexed + Linsitinib; first compound 0.2 µM)
NCI-H661	0.426	0.37	0.446	0.468	0.456	0.417	0.425	0.398	0.459	0.421	0.271	0.256	0.256	0.269	0.281	0.632	0.515	0.637	0.505	0.561
CAL-12T	0.382	0.47	0.257	0.43	0.417	0.836	0.525	0.448	0.615	0.414	0.622	0.614	0.507	0.65	0.67	0.776	0.744	0.932	0.996	0.782
HARA	0.376	0.409	0.287	0.403	0.266	0.334	0.223	0.261	0.238	0.225	0.525	0.52	0.432	0.45	0.416	0.876	0.969	0.922	0.822	0.292
NCI-H596	0.412	0.402	0.389	0.405	0.65	–	–	–	–	–	0.75	0.765	0.689	0.731	0.616	1.08	0.983	1.04	0.908	0.54
LU99A	0.324	0.339	0.263	0.385	0.279	0.41	0.424	0.357	0.429	0.39	1.06	0.836	0.737	0.988	1.01	0.501	0.496	0.634	0.44	0.345
LC-2-ad	0.534	0.516	0.415	0.467	0.417	0.454	0.518	0.513	0.503	0.49	0.602	0.592	0.462	0.626	0.546	0.811	0.83	0.819	0.24	0.188
NCI-H1650	0.668	0.608	0.553	0.645	0.593	0.361	0.338	0.297	0.324	0.291	0.439	0.341	0.35	0.371	0.379	–	–	–	–	–
NCI-H1915	1.22	0.952	0.881	1.08	0.9	0.603	0.482	0.5	0.577	0.495	0.387	0.36	0.364	0.381	0.372	1.11	1.08	1.13	1.11	1.07
ABC-1	0.726	0.771	0.566	0.813	0.723	0.546	0.6	0.664	0.686	0.709	0.243	0.254	0.231	0.267	0.217	0.904	0.804	0.828	0.753	0.713
HCC-44	0.679	0.646	0.526	0.59	0.591	1.02	0.887	0.984	1.04	0.96	0.201	0.229	0.177	0.235	0.153	0.598	0.625	0.73	0.665	0.536
HCC-78	0.222	0.208	0.206	0.21	0.228	0.443	0.446	0.411	0.466	0.352	0.945	0.647	0.582	0.751	0.674	–	0.384	0.482	0.26	0.18
LXF-289	0.894	0.78	0.722	0.873	0.745	0.592	0.667	0.601	0.687	0.627	0.506	0.518	0.46	0.534	0.496	0.917	0.994	0.976	0.955	0.931
201T	0.686	0.712	0.59	0.736	0.661	0.375	0.344	0.322	0.36	0.294	0.497	0.416	0.328	0.488	0.423	1.13	1.01	1.1	1.09	1.01
NCI-H1734	0.519	0.492	0.41	0.453	0.37	0.38	0.397	0.301	0.303	0.31	0.455	0.446	0.344	0.377	0.377	0.909	0.818	0.971	0.861	0.718
NCI-H1623	–	–	–	–	–	–	–	–	–	–	0.596	0.619	0.537	0.529	0.547	–	–	–	–	–
NCI-H2126	0.525	0.53	0.404	0.515	0.521	0.364	0.369	0.366	0.327	0.358	0.575	0.57	0.441	0.528	0.527	0.696	0.686	0.718	0.692	0.729
LOU-NH91	0.532	0.478	0.509	0.504	0.575	0.548	0.545	0.629	0.544	0.547	0.712	0.725	0.573	0.492	0.643	0.888	0.852	0.987	0.688	0.598
NCI-H1792	0.279	0.251	0.268	0.275	0.249	0.632	0.668	0.557	0.668	0.55	0.335	0.182	–	0.225	0.208	0.499	0.532	0.57	0.469	0.519
NCI-H1651	0.685	0.574	0.523	0.762	0.625	0.518	0.524	0.489	0.522	0.442	0.35	0.372	0.258	0.322	0.321	0.995	0.977	0.987	0.903	0.895
A549	0.412	0.516	0.409	0.468	0.371	–	–	–	–	–	0.36	0.182	–	0.154	0.178	0.568	0.569	0.645	0.57	0.709

Cell Line	relative viability (Idelalisib + Pictilisib; first compound 0.04 µM)	relative viability (Idelalisib + Pictilisib; first compound 0.1265 µM)	relative viability (Idelalisib + Pictilisib; first compound 0.4 µM)	relative viability (Idelalisib + Pictilisib; first compound 1.265 µM)	relative viability (Idelalisib + Pictilisib; first compound 4 µM)	relative viability (Idelalisib + Palbociclib; first compound 0.04 µM)	relative viability (Idelalisib + Palbociclib; first compound 0.1265 µM)	relative viability (Idelalisib + Palbociclib; first compound 0.4 µM)	relative viability (Idelalisib + Palbociclib; first compound 1.265 µM)	relative viability (Idelalisib + Palbociclib; first compound 4 µM)	relative viability (Idelalisib + Phenformin; first compound 0.04 µM)	relative viability (Idelalisib + Phenformin; first compound 0.1265 µM)	relative viability (Idelalisib + Phenformin; first compound 0.4 µM)	relative viability (Idelalisib + Phenformin; first compound 1.265 µM)	relative viability (Idelalisib + Phenformin; first compound 4 µM)	relative viability (Pemetrexed + Linsitinib; first compound 0.002 µM)	relative viability (Pemetrexed + Linsitinib; first compound 0.006325 µM)	relative viability (Pemetrexed + Linsitinib; first compound 0.02 µM)	relative viability (Pemetrexed + Linsitinib; first compound 0.06325 µM)	relative viability (Pemetrexed + Linsitinib; first compound 0.2 µM)
HCC-366	0.138	0.177	0.0975	0.165	0.146	0.35	0.384	0.39	0.393	0.353	0.597	0.639	0.619	0.632	0.679	0.675	0.513	0.677	0.707	0.567
EKVX	0.498	0.456	0.384	0.356	0.447	0.362	0.373	0.358	0.325	0.298	0.244	0.258	0.213	0.225	0.234	0.957	1.03	1.02	0.953	0.718
NCI-H1993	0.804	0.8	0.807	0.896	0.803	0.642	0.743	0.49	0.523	0.491	0.57	0.484	0.554	0.59	0.486	0.824	0.697	0.815	0.698	0.692
NCI-H522	–	–	–	–	–	0.958	0.793	0.903	0.947	0.796	0.675	0.66	0.641	0.761	0.634	–	–	–	–	–
NCI-H1703	0.229	0.237	0.23	0.247	0.197	–	–	–	–	–	–	–	–	–	–	0.889	0.943	1.08	0.64	0.731
NCI-H23	0.689	0.489	0.381	0.451	0.462	0.51	0.467	0.441	0.501	0.521	0.713	0.845	0.792	–	0.776	0.602	0.513	0.607	0.549	0.589
HCC-827	0.995	1.06	1.05	1.09	0.843	0.507	0.471	0.426	0.349	0.378	0.424	0.393	0.37	0.352	0.323	0.843	0.946	1.02	0.997	0.846
PC-3 [JPC-3]	0.895	0.749	0.73	0.737	0.601	0.557	0.525	0.584	0.489	0.539	0.454	0.484	0.477	0.451	0.42	0.876	0.923	0.951	0.981	0.944
NCI-H1355	0.521	0.501	0.4	0.376	0.449	0.415	0.407	0.333	0.364	0.312	0.476	0.502	0.364	0.448	0.411	0.8	0.801	0.824	0.881	0.72
IA-LM	0.275	0.344	0.358	0.445	0.296	–	–	–	–	–	–	–	–	–	–	0.484	0.488	0.784	0.702	0.644
SW 900	–	–	–	–	–	0.493	0.543	0.397	0.531	0.407	0.683	0.458	0.634	0.614	0.395	–	–	–	–	–
NCI-H1648	–	–	–	–	–	0.239	0.291	0.298	0.262	0.315	–	–	–	–	–	–	–	–	–	–
NCI-H1563	0.656	0.663	0.583	0.658	0.678	–	–	–	–	–	0.666	0.666	0.612	0.631	0.638	1.1	1.13	1.17	1.18	1.17
NCI-H2342	–	–	–	–	–	0.485	0.495	0.484	0.519	0.473	0.597	0.584	0.514	0.614	0.482	–	–	–	–	–
ChaGo-K-1	0.788	0.608	0.797	0.796	0.791	0.972	0.928	0.987	0.904	0.901	0.49	0.453	0.424	0.477	0.436	–	–	–	–	–
NCI-H2170	0.313	0.312	0.228	0.295	0.29	0.398	0.434	0.384	0.347	0.336	0.443	0.449	0.403	0.408	0.373	–	–	–	–	–
Calu-6	1.05	0.947	0.934	0.902	0.865	–	–	–	–	–	–	–	–	–	–	–	0.964	1.08	0.977	0.72
NCI-H1299	0.764	0.758	0.833	0.973	0.606	–	–	–	–	–	–	–	–	–	–	0.926	0.929	1.07	0.992	0.471
EBC-1	0.399	0.42	0.343	0.368	0.209	–	–	–	–	–	–	–	–	–	–	0.864	0.73	0.894	0.919	0.605
